According to patent US9757375B2, “Compounds that inhibit human DNA ligases and methods of treating cancer” (University of Maryland, Baltimore, priority 2007, dated 2017):
“Also recorded” adds a separate entry of the source.

Assays:
HCT116 cells = test: Cell proliferation screen (SYBR Green, Biomek FX); type: cell-based, human; conditions: 50 μM; percentage of values obtained with DMSO alone
Protocol: The ability of the compounds identified by CADD to inhibit proliferation of normal mammary epithelial MCF10A cells and colon carcinoma HCT116 cells was determined using a Biomek FX Laboratory Automation Workstation (Beckman Coulter, Inc., Fullerton, Calif.). On day 0, 20 μl of complete medium containing the appropriate number of cells (150-300) was plated per well of a 384-well tissue plate (Fisher Scientific, Hampton, N.H.) and incubated overnight at 37° C. with 5% CO2 and 90% humidity. Next day, day 1, compounds were prepared by serial dilution with complete medium to yield the concentration 100 μM, and 20 μl was added to each well containing 20 μl of medium and cells yielding the final concentration 50 μM in 40 μl volume. Plates were incubated for additional 3 days (days-2-5) until control cells (0.5% DMSO) reached ˜70-80% confluency. On day 6, 40 μl of lysis/detection solution containing 1.2% Igepal CA-630 (Sigma) and a 1:1000 dilution of SYBR Green I nucleic acid stain (Molecular Probes, Eugene, Oreg.) was added to each well. Following an overnight incubation at 37° C., total fluorescence was measured using a Fluorostar Galaxy plate reader with a 485 nm excitation filter and 520 nm emission filter set (BMG Labtech, Inc., Durham, N.C.). Data was exported to a custom program that determined growth inhibition by dividing each individual fluorescence value by the average of fluorescence values obtained with cells treated with DMSO alone.
The 192 human DNA ligase inhibitors were screened in parallel for effects on proliferation and the ability to potentiate the effects of several DNA damaging agents using two cell human lines, a colon cancer line HCT116 and a normal breast epithelial cell line MCF10A using a Biomek FX Laboratory Automation Workstation as described (23). The DNA damaging agents used, methyl methanesulfonate (MMS), camptothecin, cis-platinum, 3 aminobenzamide and ionizing radiation, are representatives of classes of agents used to treat cancer. Briefly, HCT116 and MCF10A cells were plated in 96 well plates such that the cultures were about 80% confluent after 5 days incubation. Compounds were added to the cultures at either 15 μM or 50 μM 1 day after plating. After incubation for 3 days, cell lysed in a solution containing 1.2% Igepal CA-630 and SYBR green that stains DNA (1:1000, Molecular Probes, Eugene, Oreg.). Subsequently, fluorescence was measured per well. The studies with DNA damaging agents were performed as follows. […] For ionizing radiation, cells were pre-incubated with the compounds at 50 μM for 1 hour prior to exposure to 2 gray of ionizing radiation. Cultures were incubated for 3 days and then treated as above.

DNA = DNA binding by displacement of ethidium bromide from DNA; conditions: EtBr replacement assay; 192 at 0, 50, 100 μM
Protocol: Candidate ligase inhibitors identified by CADD were assayed for their ability to inhibit hLigI and T4 DNA ligase using a high-throughput, fluorescence energy transfer-based DNA joining assay (22). Duplicate reactions (30 μL) containing 10 pmol of nicked DNA substrate and either 0.25 pmol of hLigI or 10 units of T4 DNA ligase were incubated in the presence or absence of 100 μmol/L of the putative inhibitor. DNA binding by the candidate DNA ligase inhibitors was measured by displacement of ethidium bromide from DNA as previously described (30).

hLigI = biological target: T1, hLigI (Homo sapiens, UniProt P18858); test: High-throughput fluorescence-based DNA joining (ligation) assay; type: biochemical; conditions: in vitro screen, 100 μmol/L; the 15 hLigI inhibitors inhibited by >50%
T1 construct: made in house
T1 sequence (P18858 whole entry): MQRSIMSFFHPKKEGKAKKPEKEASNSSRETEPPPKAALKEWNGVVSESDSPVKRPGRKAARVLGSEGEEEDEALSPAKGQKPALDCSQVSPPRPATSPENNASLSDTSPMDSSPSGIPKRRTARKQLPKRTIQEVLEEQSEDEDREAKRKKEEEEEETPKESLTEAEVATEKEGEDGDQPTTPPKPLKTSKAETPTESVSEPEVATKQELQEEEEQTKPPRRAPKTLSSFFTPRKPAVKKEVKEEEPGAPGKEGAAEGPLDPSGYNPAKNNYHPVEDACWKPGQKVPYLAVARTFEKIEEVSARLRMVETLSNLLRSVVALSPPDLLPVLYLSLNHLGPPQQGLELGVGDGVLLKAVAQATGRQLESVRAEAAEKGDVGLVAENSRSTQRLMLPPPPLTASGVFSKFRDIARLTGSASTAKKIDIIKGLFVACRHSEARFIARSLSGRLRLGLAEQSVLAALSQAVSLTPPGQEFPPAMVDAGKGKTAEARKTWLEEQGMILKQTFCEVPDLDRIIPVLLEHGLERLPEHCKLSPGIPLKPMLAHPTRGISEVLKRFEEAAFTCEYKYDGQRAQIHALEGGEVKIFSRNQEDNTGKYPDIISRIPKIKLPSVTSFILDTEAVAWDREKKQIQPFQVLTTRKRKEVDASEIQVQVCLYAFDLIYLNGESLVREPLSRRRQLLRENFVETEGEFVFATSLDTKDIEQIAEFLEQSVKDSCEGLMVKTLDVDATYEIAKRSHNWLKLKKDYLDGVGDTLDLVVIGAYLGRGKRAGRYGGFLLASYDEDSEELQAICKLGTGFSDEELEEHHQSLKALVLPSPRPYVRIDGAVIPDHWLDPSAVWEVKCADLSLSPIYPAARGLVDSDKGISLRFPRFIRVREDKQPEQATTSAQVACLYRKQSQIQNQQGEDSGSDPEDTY
In short: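 Nicked DNA substrate (10 pmol) was incubated with 0.25 pmol hLigI, with or without 100 μmol/L test compound, in duplicate. Afterwards the DNA was denatured and renatured with a 20-fold excess of unmodified oligonucleotide. Ligation forms an AF488/BHQ1 hairpin, read as reduced fluorescence at 518 nm.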

T4 DNA ligase = biological target: T2, T4 DNA ligase (Enterobacteria phage T4, UniProt P00970); test: High-throughput fluorescence-based DNA joining assay, non-specific inhibitor control; type: biochemical, bacteriophage T4; conditions: in vitro screen, 100 μmol/L
T2 construct: purchased NEB
T2 sequence (P00970 1-487): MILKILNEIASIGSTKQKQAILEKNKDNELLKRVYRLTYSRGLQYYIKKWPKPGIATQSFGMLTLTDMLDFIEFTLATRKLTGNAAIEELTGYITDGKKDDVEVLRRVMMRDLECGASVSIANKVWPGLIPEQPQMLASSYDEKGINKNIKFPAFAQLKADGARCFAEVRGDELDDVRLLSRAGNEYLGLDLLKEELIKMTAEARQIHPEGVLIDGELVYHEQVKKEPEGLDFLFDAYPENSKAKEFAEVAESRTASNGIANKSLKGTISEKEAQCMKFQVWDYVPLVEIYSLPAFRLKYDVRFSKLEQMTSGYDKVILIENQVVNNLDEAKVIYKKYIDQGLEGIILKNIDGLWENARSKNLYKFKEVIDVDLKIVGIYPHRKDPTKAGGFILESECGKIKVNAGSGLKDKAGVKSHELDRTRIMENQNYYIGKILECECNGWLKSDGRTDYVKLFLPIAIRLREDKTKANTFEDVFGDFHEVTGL
In short: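 This counter-screen used a FRET-based DNA joining assay. Duplicate reactions held 10 pmol nicked DNA substrate and 10 units T4 DNA ligase, with or without 100 μmol/L compound. T4 ligase lacks the DNA-binding domain targeted in silico, so compounds inhibiting it were flagged as non-specific, likely DNA-binding.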

O=S(=O)(O)N=Nc1ccc2c(c1)[nH]c1ccccc12 [Compound 192]
Growth_Inh % (50 μM) HCT116 (HCT116 cells): 70%
DNA binding of compound (effect on DNA binding by ethidium bromide) (DNA): reduced DNA binding of the DNA intercalating agent ethidium bromide; also recorded: EtBr is replaced
inhibition of hLigI (DNA ligase I), in words (hLigI): inhibited hLigI; also recorded: inhibits both hLigI and T4 DNA ligase
inhibition of T4 DNA ligase, in words (T4 DNA ligase): inhibits both hLigI and T4 DNA ligase
